The values below come from patent US20130040845A1, “METHOD FOR SCREENING RECEPTORS/LIGANDS INTERACTIONS” (IMMUNE DISEASE INSTITUTE, INC., priority 2010, published 2013).

Experiment [1] has as its target T1, RARγ receptor (Homo sapiens, UniProt P13631).
T1 sequence (P13631 1-454): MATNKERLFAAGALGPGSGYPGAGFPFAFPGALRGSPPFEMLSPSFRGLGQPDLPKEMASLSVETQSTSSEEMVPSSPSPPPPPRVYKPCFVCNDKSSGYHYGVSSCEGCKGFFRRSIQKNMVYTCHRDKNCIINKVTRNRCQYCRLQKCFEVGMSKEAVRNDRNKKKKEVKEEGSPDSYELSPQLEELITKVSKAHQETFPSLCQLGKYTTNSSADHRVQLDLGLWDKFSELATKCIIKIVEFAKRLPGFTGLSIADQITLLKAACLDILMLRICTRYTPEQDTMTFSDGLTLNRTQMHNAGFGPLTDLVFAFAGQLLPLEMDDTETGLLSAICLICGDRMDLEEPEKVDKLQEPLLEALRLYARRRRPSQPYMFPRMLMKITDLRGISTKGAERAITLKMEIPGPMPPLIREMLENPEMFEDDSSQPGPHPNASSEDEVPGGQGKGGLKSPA
The conditions noted are these: cited from earlier work.

The target of experiment [2] is T2, RARβ receptor (Homo sapiens, UniProt P10826).
T2 sequence (P10826 1-455): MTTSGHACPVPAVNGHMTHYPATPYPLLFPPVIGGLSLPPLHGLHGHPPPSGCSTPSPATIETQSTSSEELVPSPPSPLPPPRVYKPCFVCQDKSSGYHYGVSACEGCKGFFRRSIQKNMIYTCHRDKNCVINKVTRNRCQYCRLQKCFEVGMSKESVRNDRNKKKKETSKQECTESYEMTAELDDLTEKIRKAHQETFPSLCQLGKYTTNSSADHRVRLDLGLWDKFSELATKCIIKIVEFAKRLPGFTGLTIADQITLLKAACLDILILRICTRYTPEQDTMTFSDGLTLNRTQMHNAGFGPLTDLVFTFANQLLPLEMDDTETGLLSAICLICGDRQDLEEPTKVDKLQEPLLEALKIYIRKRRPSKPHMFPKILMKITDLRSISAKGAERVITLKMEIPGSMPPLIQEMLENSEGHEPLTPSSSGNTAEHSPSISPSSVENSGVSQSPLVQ
The conditions noted are these: cited from earlier work.

Experiment [3] deals with T3, RARα receptor (Homo sapiens, UniProt P10276).
T3 sequence (P10276 1-462): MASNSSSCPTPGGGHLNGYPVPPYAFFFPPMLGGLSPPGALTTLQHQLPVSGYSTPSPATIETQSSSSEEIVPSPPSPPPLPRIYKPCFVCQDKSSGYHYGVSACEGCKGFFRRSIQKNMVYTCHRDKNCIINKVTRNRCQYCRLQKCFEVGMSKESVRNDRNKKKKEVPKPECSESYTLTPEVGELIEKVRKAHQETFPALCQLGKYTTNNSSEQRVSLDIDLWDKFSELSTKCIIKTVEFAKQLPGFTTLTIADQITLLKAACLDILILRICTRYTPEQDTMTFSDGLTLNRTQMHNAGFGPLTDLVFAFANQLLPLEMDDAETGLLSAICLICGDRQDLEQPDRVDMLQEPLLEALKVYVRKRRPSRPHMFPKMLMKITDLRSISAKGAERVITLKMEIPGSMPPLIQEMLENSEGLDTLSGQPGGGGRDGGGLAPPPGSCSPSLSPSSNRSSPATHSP
The conditions noted are these: cited from earlier work.

Experiment [4] addresses T4, VWF A1 domain/GPIbα interaction (Homo sapiens, UniProt P04275+P07359).
T4 construct: human VWF A1 domain (Ile1262 to Pro1466 with pre-pro-VWF numbering); human platelet GPIbα (His1 to Arg290) were PCR-amplified; made in house; host or cells: HEK293T
Briefly: Single-molecule optical tweezer force-extension (pulling) assay on covalently tethered A1-GPIbα chimeric fusion polypeptide. It counts as binding. The conditions noted are these: presence vs absence of activator, fixed pulling rate (FIG. 5D-5F). The source says:
In the example described herein, the inventors tethered this single polypeptide to the solid surfaces of two different microspheres using double-stranded DNA (dsDNA) handles. One end of the chimeric polypeptide was tethered to a first dsDNA handle and the other end of the polypeptide was tethered to a second dsDNA handle. The polypeptide was coupled to the dsDNA handles via S—S-bond or disulfide bridges. The free ends of the dsDNA were then linked to digoxigenin or biotin (see FIGS. 3A, 4B & 4C, 10). The dsDNA coupled A1/GPIbα polypeptide was then mixed with beads that were coated with either anti-digoxigenin or streptavidin. The inventors then manipulated the beads with a pipette and a focus laser beam from an optical tweezer to stretch out or extend the A1/GPIbα polypeptide in order to study the minute forces, in pico Newtons (pN), required to dissociate the VWF A1 domain/GPIbα interaction. […] In addition, the inventors measured the extensions of the VWF A1 domain/GPIbα polypeptide that are required to keep the extension force constant. […]
In the example, the inventors monitored the forces applied to the A1/GPIbα polypeptide that is required to extend or stretch out the polypeptide from a ligand-bound state to a ligand-unbonud state with an optical tweezer (see FIG. 8 for the ligand bound and non-ligand bound state of the A1/GPIbα polypeptide). […]

T4 sequence (P04275 1262-1466): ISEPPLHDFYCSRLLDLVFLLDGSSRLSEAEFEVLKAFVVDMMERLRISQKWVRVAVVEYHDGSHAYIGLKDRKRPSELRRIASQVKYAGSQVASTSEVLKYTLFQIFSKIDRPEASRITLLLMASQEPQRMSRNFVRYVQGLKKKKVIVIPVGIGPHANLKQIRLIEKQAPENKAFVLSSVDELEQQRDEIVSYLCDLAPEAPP
T4 sequence (P07359 17-306): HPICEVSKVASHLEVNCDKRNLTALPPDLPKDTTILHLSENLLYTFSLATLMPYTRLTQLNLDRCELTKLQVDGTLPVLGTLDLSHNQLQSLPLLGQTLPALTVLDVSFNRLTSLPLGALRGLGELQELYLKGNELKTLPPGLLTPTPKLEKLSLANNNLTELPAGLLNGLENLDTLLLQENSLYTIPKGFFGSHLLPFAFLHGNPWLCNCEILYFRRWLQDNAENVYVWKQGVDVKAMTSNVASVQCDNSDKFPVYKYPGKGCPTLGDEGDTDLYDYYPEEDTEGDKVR

The term Kd denotes the constant that tells how readily two partners part at equilibrium. As for `O=C(O)c1ccc(-c2ccc3cc(O)c(C45CC6CC(CC(C6)C4)C5)cc3c2)cc1` [CD 1530, 4-(6-Hydroxy-7-tricyclo[3.3.1.13,7]dec-1-yl-2-naphthalenyl) benzoic acid], the values for the Kd in experiment [1], in experiment [2] and in experiment [3] were 0.15 µM, 1.5 µM and 2.75 µM, respectively.
For botrocetin, the “average dissociative/unbinding force for the A1/GPIbα interaction” value in experiment [4] was “increased the average dissociative/unbinding force”.
Same read-out and setting: the same measure for ristocetin: “increased the average dissociative/unbinding force”.
